MIC data for one compound are collected here from ChEMBL document CHEMBL1151416, “Revised structure of phaeantharine” (1983).

One test deals with Staphylococcus aureus. Kind of test: Antibacterial activity against Staphylococcus aureus by agar-diffusion test. It is filed as functional.
The subject of a further test is Bacillus subtilis. Put plainly: Antibacterial activity against Bacillus subtilis by agar-diffusion test. It is filed as functional.

Regarding `COc1cc2cc[n+](C)c(Cc3ccc(Oc4cc(Cc5c6cc(OC)c(OC)cc6cc[n+]5C)ccc4OC)cc3)c2cc1OC` [PHAEANTHARINE], the values for the MIC against Staphylococcus aureus and in the test with Bacillus subtilis were 86 µg/mL and 74 µg/mL, respectively.
